Reference: patent US6403605B1, “Methods for the normalization of sexual response and amelioration of long term genital tissue degradation” (Queen's University at Kingston, priority 1998, dated 2002)

Key:
[1] = system: patients diagnosed with male erectile dysfunction with no major organic component; assay: Multi-center, double-blind, randomized, placebo-controlled study: duration of erection and time to erection; type: in vivo, human; conditions: for Duration of Erection, Difference in Means: all attempts; for Time to Erection, Kaplan-Meier Median: all attempts (60 minutes if no erection); for Time to Erection, Kaplan-Meier Estimation of Median Time to Erection (Treatment Means): attempts when erection occurred, first eight attempts
Description: A multi-center, double-blind, randomized, placebo-controlled, three-armed study was conducted on 370 patients diagnosed with male erectile dysfunction with no major organic component. For each sequence, patients received placebo in one of the treatment periods, and a dose (2 mg, 4 mg, or 6 mg) of apomorphine in the other treatment period.
During treatment periods of the study, patients and their sexual partners were instructed to attempt intercourse a minimum of twice weekly. Each time the study drug was taken, a questionnaire was completed by the patient and by the partner and mailed to the study sponsor. The questionnaire recorded the date and time the study drug was taken, an evaluation of the erection, whether or not sexual intercourse had occurred, and satisfaction associated with each attempt. The patient also completed a diary which recorded the latency and duration of erections associated with the use of the study drug and antiemetic and concomitant medication usage and any adverse effects. If an erection occurred after administration to the patient of the study drug, the duration of erection and time-to-erection were recorded in the patient diary.
The data in Table 2 also indicate a dose-dependent, statistically significant difference of duration of erection, with a difference of almost 5 minutes between patients taking the 6 mg dose and those receiving placebo.
In those cases where no erection was achieved, a value of 60 minutes time-to-erection was used in the statistical analysis. The data in Table 3 show differences in latency periods between patients receiving apomorphine and those receiving placebo, but the differences probably reflect the inclusion in the data of 60 minute values for those cases in which no erection was achieved.

female rats = assay: Studies with female rats: sexual arousal behaviors; type: in vivo, rat; conditions: female rats treated with combination of apomorphine and low doses of testosterone
From the text: When co-administration of an androgen is utilized in this method of the invention, the androgen is given is doses sufficient to produce plasma concentrations of about 1 nmol/L to 200 nmol/L.

[2] = Pharmacokinetic evaluation of apomorphine (FIG. 1, mean plasma concentrations after sub-cutaneous and sublingual doses)

## CN1CCc2cccc3c2[C@H]1Cc1ccc(O)c(O)c1-3 [Apomorphine, (R)-5,6,6a,7-tetrahydro-6-methyl-(4H)-dibenzo[de,g]quinoline-10,11-diol]
[1]; 2 mg apomorphine vs placebo
  Duration of Erection, Difference in Means: 1.936 min
[1]; 2 mg apomorphine vs placebo, only attempts where erection was achieved
  Duration of Erection, Difference in Mean: 1.811 min
[1]; 2 mg apomorphine, sublingual, all attempts (zero minutes if no erection)
  Duration of Erection, Mean: 5.020 min
[1]; 2 mg apomorphine
  Time to Erection, Kaplan-Meier Median: 42.17 min
  Time to Erection, Kaplan-Meier Estimation of Median Time to Erection (Treatment Means): 11.33 min
[1]; 2 mg apomorphine, only attempts where erection was achieved
  Duration of Erection, Mean: 10.82 min
[1]; 4 mg apomorphine vs placebo
  Duration of Erection, Difference in Means: 3.578 min
[1]; 4 mg apomorphine vs placebo, only attempts where erection was achieved
  Duration of Erection, Difference in Mean: 3.458 min
[1]; 4 mg apomorphine, sublingual, all attempts (zero minutes if no erection)
  Duration of Erection, Mean: 6.903 min
[1]; 4 mg apomorphine
  Time to Erection, Kaplan-Meier Median: 36.00 min
  Time to Erection, Kaplan-Meier Estimation of Median Time to Erection (Treatment Means): 12.61 min
[1]; 4 mg apomorphine, only attempts where erection was achieved
  Duration of Erection, Mean: 12.49 min
[1]; 6 mg apomorphine vs placebo
  Duration of Erection, Difference in Means: 5.138 min
[1]; 6 mg apomorphine vs placebo, only attempts where erection was achieved
  Duration of Erection, Difference in Mean: 4.925 min
[1]; 6 mg apomorphine vs placebo, only attempts where erection was achieved, listed as apomorphine
  Duration of Erection, Difference in Mean: ~5 min
[1]; 6 mg apomorphine, sublingual, all attempts (zero minutes if no erection)
  Duration of Erection, Mean: 8.393 min
[1]; 6 mg apomorphine
  Time to Erection, Kaplan-Meier Median: 31.33 min
  Time to Erection, Kaplan-Meier Estimation of Median Time to Erection (Treatment Means): 12.82 min
[1]; 6 mg apomorphine, only attempts where erection was achieved
  Duration of Erection, Mean: 13.96 min
[1]; attempts successful in achieving an erection
  difference in median time-to-erection between drug and placebo: no statistically significant difference
[1]; doses tested (2, 4, 6 mg)
  effect on duration of erection compared to placebo: significant increase in the duration of erection
Female rats
  behaviors associated with sexual arousal: exhibited lordosis, genital grooming and other behaviors typically associated with sexual arousal
[2]; 12 minutes following buccal administration
  fraction of maximum blood serum levels reached: one-fifth to one-fourth
[2]; interpolation of plasma curves for 2, 4, 6 mg up to about 20 minutes after administration
  plasma apomorphine levels sufficient to cause a therapeutic effect: less than 0.25 ng/mL
[2]; sub-lingual administration (formulation used in Tables 1-4)
  time to maximum plasma concentrations: about 60 minutes
